According to patent US8852240B2, “Methods and compositions for fostering and preserving bone growth” (Kieran Murphy, LLC, priority 2004, dated 2014):
Entries after “also recorded” stand apart in the source; their conditions may differ.

Columns and labels:
[1] = tested on: femoral shaft marrow cavity; experiment: Micro-CT analysis of the femoral shaft marrow cavity after bone marrow ablation (BMX); format: in vivo, rat; settings: for protection of bone formed in the marrow cavity (Micro-CT): BMX + PTH 21 days, then anti-resorptive drug for an additional 63 days, FIG. 7B
Text: FIG. 1B depicts the results from the same groups of animals using the imaging technique known as Micro-CT. This technique provides a high resolution analysis of the femoral shaft marrow cavity from the Control, BMX, and the BMX+PTH 1-34 NH2 of rats treated with PBS (buffer) or PTH for 21 or 84 days, respectively;
FIG. 6B depicts the results obtained from the same groups of animals reported in FIG. 6A using the Micro-CT imaging technique. This imaging technique provides a high resolution analysis of the femoral shaft marrow cavity from the BMX+PBS or PBX+PTH treatments, compared with femurs that had biocompatible materials (Cementek or Pepgen-15) injected into the bone marrow cavity following the step (e.g., ablation) resulting in the inducement of increased osteoblast activity; and
FIG. 7B depicts the results from the same groups of animals reported in FIG. 7A using the Micro-CT imaging technique, which provides a high resolution analysis of the femoral shaft marrow cavity.

[2] = tested on: marrow cavity of rat femur; experiment: Calcein labeling of mid-shaft sections of rat femur after bone marrow ablation (BMX); format: in vivo; settings: for protection of bone formed in the marrow cavity (calcein fluorescent signal): BMX + PTH 21 days, then anti-resorptive agent for the next 63 days (days 22-84), FIG. 7A
Method: FIG. 1A is a section of the mid-shaft of a rat femur following, respectively, 21 and 84 days of treatment. The groups include: (a) control—no bone marrow ablation (“BMX”) or anabolic agent, (b) BMX—bone marrow ablation alone; and (c) BMX+PTH−bone marrow ablation plus treatment for either 21 or 84 days with PTH 1-34 NH2. In addition, the rats were injected with calcein, a fluorescent dye, on 9, 8, 2 and 1 day prior to sacrificing the animals. Calcein becomes incorporated into bone and serves as a measure of bone growth and mineralization;
FIG. 6A illustrates the degree of persistent bone growth achieved after 84 days with the administration of a biocompatible material, in this instance Cementek (Cementek LV, Non-stoichiometric hydroxyapatite prepared from the reaction between the acid and base calcium phosphates in the presence of an aqueous solution. Teknimid, 65500 VIV en Biggore, France) or Pepgen-15 (a high purity anorganic bovine graft material, radiopaque, peptide-enhanced to mimic autogeneous bone. Dentsply Friadent CeraMed Lakewood, Colo.). All samples were taken from femurs which had BMX performed on them. The groups included: BMX followed by 84 days anabolic agent or PBS (buffer) presented in the first row or BMX followed by insertion of a slurry of biocompatible matrix (Cementek or Pepgen-15) with our without concomitant PTH treatment for 84 days;
FIGS. 7A and 7B illustrate the effect attributable to administration of the anti-resorption agent, Alendronate, in preserving bony tissue formed according to the method of the invention. The following treatment modalities are included: (a) BMX+PTH 1-34 NH2 for 21 days+PBS (buffer) during days 22-84; (b) BMX+PTH 1-34 NH2 for 21 days+calcitonin during days 22-84; (c) BMX+PTH 1-34 NH2 for 21 days+Alendronate during days 22-84; and (d) BMX+PTH 1-34 NH2 during days 1-84.

Molecule	protection of bone formed in the marrow cavity (Micro-CT) [1]	protection of bone formed in the marrow cavity (calcein fluorescent signal) [2]	protection of bone formed in the marrow cavity (calcein fluorescent signal) ([2]; listed as Alendronate)	bone in femoral shaft marrow cavity (Micro-CT) ([1]; BMX + PTH 1-34 NH2 + biocompatible material versus biocompatible material alone, 84 days, FIG. 6B)	newly formed bone in the marrow cavity (Micro-CT) ([1]; BMX + PTH for 21 days, day 21, FIG. 1B)	bone in marrow cavity of femur mid-shaft/diaphysis (Micro-CT) ([1]; BMX + PTH for 84 days, day 84, FIG. 1B / 7B)	bone formation in femur mid-shaft (calcein) ([2]; BMX + PTH for 21 days, day 21, FIG. 1A)	bone / fluorescent label remaining in ablated marrow cavity (calcein) ([2]; BMX + PTH for 84 days, day 84, FIG. 1A / 7A)	bone formation in femurs receiving a biocompatible matrix material (calcein) ([2]; BMX + biocompatible matrix + PTH 84 days versus buffer (PBS), FIG. 6A)
calcitonin	protects the bone	protected; also recorded: protect the bone							
NCCCC(O)(P(=O)(O)O)P(=O)(O)O [alendronate]	to a greater extent	protect the bone	greater protective effect						
PTH 1-34 NH2				better results than the use of biocompatible material alone	further augmented	no longer contains substantial amounts of bone; also recorded: no longer contains radio-dense bone	leads to additional bone formation	resorption of a substantial portion of the bone that was present at day 21; also recorded: contains a minimum amount of fluorescent label; also recorded: no longer contains fluorescent labels	markedly greater than for buffer (PBS) alone
